This note sets out measurements from patent publication US11435353B2, “Method of evaluating drug resistance and treatment effect” (priority 2018, dated 2022).

Entries after “also recorded” stand apart in the source; their conditions may differ. Read-outs that look alike come from different tables or passages of the source.

The subject of one series is TRBP. Description: Western blot of TRBP expression after tamoxifen or 4OHT treatment. It is filed as cell-based. Particulars: 48 hours. The procedure:
(§1) On the other hands, similar experiments above are also performed to identify the upstream modulator of TRBP.
(§2) Whole cell extracts were lysed in RIPA buffer and collected to fractionate by SDSPAGE, and then transferred onto PVDF membranes according to the manufacture's protocols (Bio-Rad). After blocking with 5% nonfat milk in TBST for 60 min, membranes were washed and incubated with primary antibodies at 4° C. overnight. Membranes were washed three times for 10 min and incubated with secondary antibodies for 60 min. Protein expressions were visualized by ECL system according to the manufacture's protocols.
In general terms: A western blot detects proteins with antibodies after separation by electrophoresis.

The test system of a further series is TRBP mRNA. Put plainly: qRT-PCR of TRBP mRNA level. The format is cell-based. The note with it: FIG. 7A. The procedure:
(§3) Then, in order to investigate changes in TRBP protein stability, the […] of TRBP was analyzed by further treating the tamoxifen-resistant cell (MCF-7/TR) and the tamoxifen-resistant cell (MCF-7/TR1) with 50 μg/ml cycloheximide (CHX) to block de novo protein synthesis, followed by harvesting the tamoxifen-resistant cell (MCF-7/TR) and the tamoxifen-resistant cell (MCF-7/TR1) at an indicated time point to analyze the expression of TRBP in the tamoxifen-resistant cell (MCF-7/TR) and the tamoxifen-resistant cell through another western blot, wherein the degradation rates were plotted for the average±SEM of at least three independent experiments and analyzed by two-way ANOVA (*P≤0.05 and **P≤0.01).
(§4) Total RNA was isolated by using Trizol reagent according to the manufacturer's instructions. 200 ng of RNA was reverse transcribed to complementary DNA (cDNA) by using a reverse transcriptase enzyme, a random primer, dNTPs and an RNase inhibitor. Real-time PCR was performed by Applied Biosystem Step One Real-time PCR system (Applied Biosystems) according to manufacturer's protocols. Samples run in three independent experiments and GAPDH or α-tubulin were used as an internal control to normalize the target genes.
A general note: In qPCR the cycle at which signal appears reflects the starting amount.

The subject of a further series is TRBP protein. Description: Cycloheximide chase, TRBP protein stability by western blot. It is filed as cell-based. The procedure:
as §3, §2

For another series, the system named is Merlin. Description: Western blot of Merlin expression after tamoxifen treatment. It is filed as cell-based. The note with it: increasing concentrations, 48 hours. The procedure:
as §2

The next series concerns SOX2 mRNA. Description: qRT-PCR of stem cell marker mRNA (SOX2). The format is cell-based. The note with it: MCF-7 cells, 2 μM, 48 hours, FIG. 8A/8F. The procedure:
(§5) Then, the tamoxifen-sensitive cells (MCF-7) were further collected to analyze protein expression by using a western blot.
After that, RNA was isolated from the tamoxifen-sensitive cell (MCF-7) to analyze the mRNA expression of SOX2 by using a reverse-transcription PCR (qRT-PCR).
as §4

Series [1] concerns SOX2 protein. Put plainly: Western blot of SOX2 protein expression. The format is cell-based. The procedure:
In order to identify the downstream modulator of TRBP, the tamoxifen-sensitive cells (MCF-7) were treated with 2 μM tamoxifen for 48 hours, and then RNA of the tamoxifen-sensitive cell (MCF-7) was isolated to analyze the mRNA expression of stem cell markers by using a reverse-transcription PCR (qRT-PCR), with the aforementioned experiment being repeated at least three times, and with ATP5E being used as a positive control for tamoxifen treatment (*P<0.05) by t-test. Then, the tamoxifen-sensitive cells (MCF-7) were further collected to analyze protein expression by using a western blot. Accordingly, we determined the expression of several key factors that have been reported to modulate self-renewal and drug resistance of cancer cells, including SOX2, Nanog, OCT4, Lin28A, CCND1.
as §1, §2

The next series concerns cyclin D1. Description: qRT-PCR and western blot of cyclin D1. Particulars: MCF-7 cells, 2 μM, 48 hours, FIG. 8A/8B. The format is cell-based. The procedure: as §5, §2, §4
For series [2], the system named is SOX2 protein. Description: SOX2 protein stability. It is filed as cell-based.
In another series the test system is p-AKT. Put plainly: Western blot of p-AKT. The format is cell-based. The note with it: left of FIG. 8K. The procedure:
as §1, §2

Series [3] relates to tamoxifen-resistant cell (MCF-7/TR).
Method: (§6) Cell viability was analyzed by MTT (3, [4,5-dimethylthiazol-2-yl-]diphenyltetrazolium bromide, 5 mg/ml). Cells were seeding in 96-well plates and incubated overnight, and then changed into the fresh medium containing indicated concentrations of tamoxifen for 72 h. 50 μl of MTT was added to each well and incubated for 2 h, and the purple formazan crystals were dissolved in DMSO. The absorbance was measured by a microplate reader at a wavelength of 570 nm.
Series [4] deals with ER+ breast cancer cell (ZR-75-1).
Method: as §6
For series [5] the test system is unchanged. Put plainly: MTT assay of cytotoxic effects in ZR-75-1 cells. Particulars: short-term treatment, FIG. 5C/5D.
Method: as §6

`CC/C(=C(\c1ccccc1)c1ccc(OCCN(C)C)cc1)c1ccccc1` [tamoxifen]: the TRBP expression entry is “no significant induction of TRBP” with TRBP (ER- Hs578T cells, FIG. 5E); “no significant induction of TRBP” with TRBP (ER- MDA-MB-231 cells, FIG. 5E); “no significant induction of TRBP” with TRBP (ER- SKBR3 cells, FIG. 5E); “induced the TRBP expression in a dose-dependent manner” with TRBP (MCF-7/TR cells, increasing concentrations, FIG. 5A/5B). The “TRBP mRNA level” value with TRBP mRNA (MCF-7/TR1 cells) and in the series on TRBP mRNA (MCF-7/TR cells pretreated with 2 μM tamoxifen for 48 hours) was “not significantly changed” each time. For the same compound, the “degradation of TRBP protein” value with TRBP protein (tamoxifen-treated vs untreated MCF-7, 50 μg/ml cycloheximide, FIG. 7B) is reported as “significant prolonged degradation of TRBP protein”; with TRBP protein (tamoxifen-treated vs untreated MCF-7/TR1, 50 μg/ml cycloheximide, FIG. 7C), “significant prolonged degradation of TRBP protein”. The “expression of Merlin” value in the series with Merlin (MCF-7 cells, FIG. 7D) is on record as “suppressed in a dose-dependent manner”; with Merlin (ZR-75-1 cells, FIG. 7E) it was “suppressed in a dose-dependent manner”. Besides, in the series with SOX2 mRNA, the “expression of SOX2 mRNA” value is reported as “upregulated; also recorded: enhanced SOX2 expression”. Moreover, in the series on SOX2 protein [1] (MCF-7 cells, 2 μM, 48 hours, FIG. 8B), the “expression of SOX2 protein” value is listed as “upregulated expression of SOX2 protein”. Further, the “SOX2 level after tamoxifen treatment” value with SOX2 protein [1] (right of FIG. 8K) is reported as “elevated-SOX2 level”. In the series on cyclin D1, the “cyclin D1 expression” value was “reduction of cyclin D1”. Further, the SOX2 protein degradation entry in the series with SOX2 protein [2] (tamoxifen-treated vs untreated MCF-7, FIG. 8G) is “degraded more slowly”; with SOX2 protein [2] (tamoxifen-treated vs untreated MCF-7/TR, FIG. 8H), “degraded more slowly”. Besides, the “p-AKT level after tamoxifen treatment” value in the series with p-AKT is “elevated-AKT level”. Also, the figures for the “cytotoxic effects (MTT)” value in series [3] and in [4] were “without inducing any significant cytotoxic effects” and “noncytotoxic”, respectively.

Take 4-hydroxytamoxifen: in series [5], the “cytotoxic effects (MTT)” value was “noncytotoxic”.
